# Experimental data reported in patent publication US12624122B2, “Affinity maturated TAG72 specific single chain antibodies” (H. Lee Moffitt Cancer Center and Research Institute, Inc., priority 2016, dated 2026).
# What was measured:
# Assay type in all cases: cell-based
# MCF-7 cells = experiment: flow cytometry apoptosis (annexin V and PI), MCF-7 cells with human CD8 T cells
# Source text: (§1) FIGS. 5 to 96 are flow cytometry plots testing the disclosed bispecific antibodies. Table 1 summarizes flow cytometry results measuring apoptosis with annexin V and PI in gated populations of MCF-7 and MDA-231 cells treated with human CD8 T cells with bi-specific antibodies plus or minus the photosensitizing compound verteporfin.
# MDA-231 cells = experiment: flow cytometry apoptosis (annexin V and PI), MDA-231 cells with human CD8 T cells
# Source text: as §1
# [1] = system: programmed cell death ligand 1 (PDL1); experiment: tumor cell PDL1 surface expression
substance,measurement,setting,value
verteporfin [Vs],Control group (%) viable cells,MCF-7 cells; CD8 + Vs (1 μM),(19) %
same,Control group (%) viable cells,MCF-7 cells; CD8 + Vs (2 μM),(13.3) %
same,Control group (%) viable cells,MCF-7 cells; CD8 + Vs (5 μM),(7.51) %
same,Control group (%) viable cells,MDA-231 cells; CD8 + Vs (1 μM),(56.3) %
same,Control group (%) viable cells,MDA-231 cells; CD8 + Vs (2 μM),(57.4) %
same,Control group (%) viable cells,MDA-231 cells; CD8 + Vs (5 μM),(55.3) %
same,tumor cell PDL1 surface expression,[1],reduce tumor cell programmed cell death ligand 1 (PDL1) surface expression
